Reference: patent US12263140B1, “Methods of reducing the production of greenhouse gases from animals” (AGRICULTURAL SCIENCES LIMITED, priority 2023, dated 2025)

Assays:
cow rumen fluid [1] = test: SIFT-MS analysis of gas from grass fermentations by cow rumen fluid; type: cell-based
Source text: A SIFT-MS analyser was further used to confirm the above noted effects in terms of reductions in methane. A SIFT-MS device (see https://syft.com/sift-ms-technology/) is an advanced method for analysing mixtures of smaller volatile organic compounds.

[2] = system: rumen fluid from live fistulated cows; test: Fermentation of dried grass with rumen fluid from treated live fistulated cows, 12 hours (Example 11); type: in vivo, cow; conditions: 36° C., dark, 1 g dried grass
Description: In this trial, samples of rumen fluid from live fistulated cows were collected, passed through butter muslin (cheese cloth) and the fluid transferred to pre-warmed Thermos™ flasks.
Six fermentation vessels had 1 g of dried grass added to each.
Three vessels, the Experimentals, were filled with the rumen fluid from the treated cows. The other three vessels, the controls, were filled with rumen fluid from the untreated cows. All vessels were gently incubated at 36° C. in the dark for 12 hours.

pig faeces = test: Fermentation of diluted pig faeces; type: cell-based; conditions: 1% steep fluid
Description: Fresh pig faeces samples were mixed with an equal volume of distilled water.
Six 50 ml fermentation tubes were used in the fermentation experiment.
The controls were […] fermentation tubes filled to the top with diluted pig faeces.
The fermentation tubes were gently agitated in a water bath held in the dark at 36° C.

[3] = system: rumen fluid from live cows; test: Fermentation of dried grass with rumen fluid from fistulated cows that drank dilute vitamin K1 solution; type: in vivo, cow; conditions: drinking water, 100 ml of tincture to 20 litres of water
Source text: The collected rumen fluid was then fermented with dried grass in the fermenter described in Example 1 and FIG. 1.

cow pats (faeces) = test: Fermentation of cow pats from cows drenched with vitamin K1; type: in vivo; conditions: FIG. 9; no vitamin K1 added to the cow pats
Description: The cows in both fields were of the same breed and provenance.
The resulting cow pat samples were fermented using the apparatus described in Example 1 and FIG. 1 and gas produced collected and tested. Vitamin K1 was not added to the cow pats.
An qualitative test was also completed where the smell of the gases in the fermentation chambers were assessed at the end of fermentation.

cow rumen fluid [4] = test: Fermentation of cow rumen fluid and dried grass (hay) in adjustable pressure fermenter; type: cell-based; parameters: reduction of total gas volume compared to controls, average / reduction of total gas volume compared to controls, minimum / methane emission reduction / methane emission reduction, peak / CO2 volume produced by the fermentation, reduction compared to control samples: concentration or dose not given beside the values; conditions: for inhibition of vitamin K1 effects on reducing gas production by grass: Example 2
Source text: The aerial parts of the plants were harvested and allowed to dry for a number of days, the number depend on the weather. When air dry the material was steeped in 30% ethanol for one month or more (up to 3 months). It was important to keep the steep in the dark and to have the steep vessels filled and cover tightly to prevent the entry of air. […] Samples of rumen fluid were collected from either slaughtered cows immediately after slaughter. Samples of rumen fluid were collected from the rumen of these cows by cutting the rumen wall using a sterilised knife and allowing the fluid that exuded from the cut to be collected in a sterilised kidney bowl and held in a Dewar flask at body temperature. The rumen fluid was used within one hour of slaughter. It was passed through cheese cloth or similar to filter out the liquid portion for use in this and further trials. […] The rumen fluid was kept in the dark at a temperature of 36° C. at all times during transport and storage.
The collected rumen fluid samples were mixed with dried grass (hay) to form control samples. […] The prepared samples were then added to a trial fermenter and fermented over time to determine the total amount of gas produced during the fermentation time period along with the CO2 produced and the methane (CH4) production during the trial time period. The tubes were inspected periodically until fermentation stopped. The samples were analysed using gas chromatography (GC) with a permanent gas analysis column, in the order they were made.
The trial fermenter used is an adjustable pressure fermenter system consisting of two arms (one closed and one open) of a manometric setup fastened to a backplate (not shown).
Fermentation tube sizes varied from 50 ml to 250 ml. The closed arm was fixed to the supports and was closed at its top end by means of a removable stopper that has a small rubber or synthetic material septum embedded in the centre.
Samples may be taken from the fermenter using a gas tight microlitre syringe. In use, according to one or more embodiments, the needle of the syringe is able to be inserted through the septum to take samples of fermenting fluid or gas for analysis by gas chromatography.
The arms were free to move up or down so that the pressure in the closed arm could be brought to atmospheric pressure, which occurred when the fluid levels in both arms were at equal heights.
For all early trials lab scale (50 ml) fermenters were used. Up to 20 fermenters could be used at the same time thus giving more reliable replications for statistical analysis. The tubes were held in a water bath held at a temperature of 36° C. with light excluded by a light-proof cover on the bath. The tubes were gently agitated during the fermentation.
The synthetic material was produced by the oxidation of 2-methylnaphthalene to 2-methyl-1,4-naphthoquinone with chromium trioxide in sulphuric and acetic acids. Trials were completed using the above trial fermenter and method using rumen fluid as described in Example 1.
To investigate this, fermentations were completed using the apparatus described in Example 1 and FIG. 1 using samples of fresh cow rumen fluid and dried grass, according to one or more embodiments.

[5] = EFSA report 2013; cited from earlier work
methanogens = test: Fermentation of methyl alcohol in rumen fluid; type: cell-based, cow; conditions: MeOH added to rumen fluid with or without vitamin K1
Description: The MeOH was added in equal volumes to tubes containing rumen fluid with (E) or without (C) the addition of vitamin K1. The results are shown as symbols on the Y-axis in FIG. 13, according to one or more embodiments.

[6] = system: rumen regions AD, PD, PV, AV; test: Natural fermentation and pH of fluid from different rumen regions; type: cell-based, cow; conditions: FIG. 13
Source text: The different rumen regions were sampled by collecting the rumen of a slaughtered animal and making a cut with a sterile knife in a particular region and then palpating fluid samples using gloved hands from the cut. Cuts were made in the anterior dorsal region of the rumen (AD), the posterior region (PD), the posterior ventral (PV) and the anterior ventral (AV).
FIG. 13 is a graph showing the results of natural fermentation (without the addition of substrate other than the material eaten by the cow before death), according to one or more embodiments.
The pH difference between experimental, which were dosed with vitamin K1, and the controls, which were not dosed with vitamin K1, was greatest at position AD. The average pH in the control samples was 6.51 and in the experimental samples, the average pH was 6.34.

CC1=C(C/C=C(\C)CCC[C@H](C)CCC[C@H](C)CCCC(C)C)C(=O)c2ccccc2C1=O [vitamin K1]
reduction in methane compared with controls (cow rumen fluid [1]): 83.6% | reduction in total volume compared with controls (cow rumen fluid [1]): 56.8% | CO2, of controls [2]: 39.35% | methane formation, of controls [2]: 25.6% | total gas volume, of controls [2]: 25.6% | emission of methane gas from faeces (pig faeces): completely inhibited | reduction in carbon dioxide production [3]: approximately 29% | reduction in methane production [3]: approximately 20% | reduction in total gas production [3]: approximately 25% | vitamin K1 effect on gas production carried through to faeces (cow pats (faeces)): still active in the faeces | CO2 volume produced by the fermentation, reduction compared to control samples (cow rumen fluid [4]): 83.4% | inhibition of vitamin K1 effects on reducing gas production by grass (cow rumen fluid [4]; grass fermented immediately after harvest): total | inhibition of vitamin K1 effects on reducing gas production by grass (cow rumen fluid [4]; older (3+ day old) grass): only a small inhibitory effect | gas volume produced (cow rumen fluid [4]; Example 9, Trial 4, vitamin K1 and sulphide both added): consistent with and even slightly higher than control | methane emission reduction (cow rumen fluid [4]; further trials): 66.7% | reduction of total gas volume compared to controls, average (cow rumen fluid [4]; further trials): 80.2% | reduction of total gas volume compared to controls, maximum (cow rumen fluid [4]; further trials): 94.5% | reduction of total gas volume compared to controls, minimum (cow rumen fluid [4]; further trials): 75.9% | methane emission reduction, peak (cow rumen fluid [4]; further trials, under specific conditions): 91% | risk to the environment [5]: not a risk to the environment | fermentation of MeOH by methanogens (methanogens): strongly inhibits | rumen region of greatest inhibition [6]: maximum inhibitory effect in the PV region | rate of methane production in rumen regions ([6]; natural fermentation without added substrate): lower the rate of methane production
